As usually defined, the IC50 is the concentration that gives 50% inhibition.

Bounds are passed on as bounds.

What all share (format): cell-based
In one experiment the test system is Hela cells. Nature of the experiment: Cell Viability Assay, Hela cells. To be noted: Homo sapiens, 72 h, Cell Titer Glo, read-out: Cell Viability - Hela cells (activity range), IC50. On the procedure: (§1) 3.4 Cell Viability Assays
(§2) Hela- or MDAMB468-Cells were maintained in RPMI 1640 or McCoy's 5A cell culture medium+glutamine (PAN Biotech GmbH, Aidenbach, Germany; order no. PO4-22100; PO4-05500) supplemented with 10% fetal calf serum “Gold” (PAA Laboratories GmbH, Pasching, Austria; order no. A15-151) and grown at 37° C., 5% CO2. For the cell viability assay, cells were seeded with a density of 400 (Hela cells, DSMZ Braunschweig order no. ACC57) or 800 (MDAMB468 cells, ATCC order no. HTB-132) per well in 25 μL in 384-well plates (Greiner Bio-One, Frickenhausen, Germany; order no. 781080). After overnight incubation at 37° C./5% CO2, 25 nL or 75 nL compound were added to each sample well by using BIOMEK FXP Laboratory Automation Workstation (Beckman Coulter, USA). Wells with cells and 0.1% or 0,3% DMSO in culture medium were used as positive controls, wells with cells and 10 μM staurosporine in culture medium were used as negative controls. The cells were incubated with the compounds for 72 h at 37° C./5% CO2. For measurement of cell viability 25 μL Cell Titer Glo reagent (Promega, Madison, USA; order no. G7573), 1:2 diluted with cell culture medium, was added to each well. The 384we11-plates were placed for 2 min on a orbital microplate shaker and incubated for further 10 min at room temperature to stabilize the luminescence signal.
(§3) Luminescence was measured by Envision Plate Reader (Perkin Elmer, USA). IC50 values were calculated with the software Excel Fit (IDBS, Guildford, UK) from 3-fold dilution series comprising at least 8 concentrations in duplicates.
For orientation: ATP-based viability assays read luminescence as a measure of living cells.

Another experiment deals with MDAMB468 cells. Nature of the experiment: Cell Viability Assay, MDAMB468 cells. To be noted: Homo sapiens, MDA-MB-468; 72 h, Cell Titer Glo; read-out: Cell Viability - MDAMB468 cells (activity range), IC50. As for the experimental part:
as §1, §2, §3

The subject of experiment [1] is LPS-induced TNF alpha release in PBMCs. Nature of the experiment: TNF alpha Release Assay. As to conditions: Homo sapiens, PBMC, 1 μg/mL LPS, 6 h, read-out: TNF alpha release (activity range), IC50. As for the experimental part:
3.3 TNF alpha Release Assay
Freshly isolated peripheral blood mononuclear cells (PBMCs) were seeded in 96-well cell culture plates with 200,000 cells in 100 μl cell culture medium (DMEM cell culture medium+glutamine from PAN Biotech GmbH, Aidenbach, Germany) supplemented with 10% fetal calf serum (PAA Laboratories GmbH, Pasching, Austria) per well and incubated overnight at 37° C., 5% CO2. To each well, 100 μL cell culture medium with 2× concentrated test compounds diluted from 10 mM DMSO stocks, or 100 μL DMEM with 0.4% DMSO for control wells, was added. The compounds of general formula (I) summarized in Table 6 were used in this assay. After incubation for 1 h at 37° C., 5% CO2, cells were stimulated with 1 μg/mL LPS (Lipopolysaccharides, Sigma, catalog #L4391-1 MG; 1 mg/ml stock solution), or left untreated for negative controls, and plates were incubated for 6 h at 37° C./5% CO2. The cell culture plates were centrifuged at 2000 rpm for 5 minutes, and supernatants were transferred to fresh 96-well polypropylene plates. 25 μL of supernatants were transferred into 96-well-plates of the human TNF alpha-tissue culture kit (Meso Scale Discovery, Gaithersburg, Md., USA), and manufacturer's instructions were followed for analysis of TNF alpha levels. […]

As to `NS(=O)(=O)Cc1cccc(Nc2ncnc(N3CCc4nc[nH]c4C3)n2)c1` [Compound B44, 3-[(4-(6,7-Dihydro-3H-imidazo[4,5-c]pyridin-5(4H)-yl)-1,3,5-triazin-2-yl)amino]benzenemethanesulfonamide], the IC50 with Hela cells and in the experiment with MDAMB468 cells was more than 10 µM each time.

Take `COC[C@H]1CCCN1c1ncnc(Nc2cccc(CS(N)(=O)=O)c2)n1` [Compound B17, (R)-3-[(4-(2-(Methoxymethyl)pyrrolidin-1-yl)-1,3,5-triazin-2-yl)amino]benzenemethanesulfonamide]: the IC50 in experiment [1] lay in the range of 1 to 10 µM.

As to `NS(=O)(=O)Cc1cccc(Nc2ncnc(N3CCc4ncsc4C3)n2)c1` [Compound B45, 3-[(4-(6,7-Dihydrothiazolo[5,4-c]pyridin-5(4H)-yl)-1,3,5-triazin-2-yl)amino]benzenemethanesulfonamide], the concentration for half-maximal inhibition (IC50) with Hela cells and with MDAMB468 cells was 1 to 10 µM in each case.

In the case of `NS(=O)(=O)Cc1cccc(Nc2ncnc(N3CCCCC3)n2)c1` [Compound B1, 3-[(4-(Piperidin-1-yl)-1,3,5-triazin-2-yl)amino]benzenemethane sulfonamide], the half-inhibitory concentration (IC50) in experiment [1] was more than 10 µM.

Consider `NS(=O)(=O)Cc1cccc(Nc2ncnc(N3Cc4cn[nH]c4C3)n2)c1` [Compound B51, 3-[(4-(Pyrrolo[3,4-c]pyrazol-5(1H,4H,6H)-yl)-1,3,5-triazin-2-yl)amino]-benzenemethanesulfonamide], for which the IC50 in the experiment on Hela cells and in the experiment with MDAMB468 cells was more than 10 µM in each case.
